Columns and labels:
Assay type in all cases: cell-based
[1] = system: renal cell carcinoma cell lines CAKI-1 and ACHN cells; experiment: Synergistic effect of omeprazole and anticancer drug, renal cancer cell lines; settings: anticancer drug combined with omeprazole (KN510) versus each treatment alone
PC-3 cells = experiment: SRB assay cancer cell growth rate, PC-3; settings: relative to control (100%), 48 hours, KN510 200 μM, irinotecan 2.5 μM, 5-FU 5 μM, gemcitabine 2.5 μM, paclitaxel 10 nM, cisplatin 1 μM, alone or KN510 + anticancer drug
[2] = system: MKN-28 cells and AGS cells, stomach cancer cells; experiment: Synergistic effect of omeprazole and anticancer drug, stomach cancer cells; settings: anticancer drug combined with omeprazole (KN510) versus each treatment alone
[3] = system: ovarian cancer cells, OVCAR-8 cells and SK-OV-3 cells; experiment: Synergistic effect of omeprazole and anticancer drug, ovarian cancer cells; settings: anticancer drug combined with omeprazole (KN510) versus each treatment alone
HCT-116 cells = experiment: SRB assay cancer cell growth rate, HCT-116; settings: relative to control (100%), 48 hours, KN510 200 μM, irinotecan 2.5 μM, 5-FU 5 μM, gemcitabine 2.5 μM, paclitaxel 10 nM, cisplatin 1 μM, alone or KN510 + anticancer drug
[4] = system: A549 and H23 lung cancer cells; experiment: Synergistic effect of omeprazole and anticancer drug, lung cancer cells; settings: anticancer drug combined with omeprazole (KN510) versus each treatment alone
CAKI-1 cells = experiment: SRB assay cancer cell growth rate, CAKI-1; settings: relative to control (100%), 48 hours, KN510 200 μM, irinotecan 2.5 μM, 5-FU 5 μM, gemcitabine 2.5 μM, paclitaxel 10 nM, cisplatin 1 μM, alone or KN510 + anticancer drug
ACHN cells = experiment: SRB assay cancer cell growth rate, ACHN; settings: relative to control (100%), 48 hours, KN510 200 μM, irinotecan 2.5 μM, 5-FU 5 μM, gemcitabine 2.5 μM, paclitaxel 10 nM, cisplatin 1 μM, alone or KN510 + anticancer drug
[5] = system: leukemia cells, SR cells and K562 cells; experiment: Synergistic effect of omeprazole and anticancer drug, leukemia cells; settings: anticancer drug combined with omeprazole (KN510) versus each treatment alone
[6] = system: glioblastoma (GBM) cell lines, U-87 MG cells and T87G cells; experiment: Synergistic effect of omeprazole and anticancer drug, glioblastoma cell lines; settings: anticancer drug combined with omeprazole (KN510) versus each treatment alone
SR cells = experiment: SRB assay cancer cell growth rate, SR; settings: relative to control (100%), 48 hours, KN510 200 μM, irinotecan 2.5 μM, 5-FU 5 μM, gemcitabine 2.5 μM, paclitaxel 10 nM, cisplatin 1 μM, alone or KN510 + anticancer drug
OVCAR-8 cells = experiment: SRB assay cancer cell growth rate, OVCAR-8; settings: relative to control (100%), 48 hours, KN510 200 μM, irinotecan 2.5 μM, 5-FU 5 μM, gemcitabine 2.5 μM, paclitaxel 10 nM, cisplatin 1 μM, alone or KN510 + anticancer drug
UACC257 cells = experiment: SRB assay cancer cell growth rate, UACC257; settings: relative to control (100%), 48 hours, KN510 200 μM, irinotecan 2.5 μM, 5-FU 5 μM, gemcitabine 2.5 μM, paclitaxel 10 nM, cisplatin 1 μM, alone or KN510 + anticancer drug
[7] = system: colon cancer cell lines HCT-116 cells and COLO-205 cells; experiment: Synergistic effect of omeprazole and anticancer drug, colon cancer cell lines; settings: anticancer drug combined with omeprazole (KN510) versus each treatment alone
[8] = system: melanoma cell lines UACC62 cells and UACC257 cells; experiment: Synergistic effect of omeprazole and anticancer drug, melanoma cell lines; settings: anticancer drug combined with omeprazole (KN510) versus each treatment alone
[9] = system: pancreatic ductal adenocarcinoma (PDAC) cell lines, MIA PaCa-2 cells and PANC-1 cells; experiment: Synergistic effect of omeprazole and anticancer drug, pancreatic cancer cell lines; settings: anticancer drug combined with omeprazole (KN510) versus each treatment alone
[10] = system: breast cancer cells, MDA-MB-231 cells and MCF-7 cells; experiment: Synergistic effect of omeprazole and anticancer drug, breast cancer cells; settings: anticancer drug combined with omeprazole (KN510) versus each treatment alone
A549 cells = experiment: SRB assay cancer cell growth rate, A549; settings: relative to control (100%), 48 hours, KN510 200 μM, irinotecan 2.5 μM, 5-FU 5 μM, gemcitabine 2.5 μM, paclitaxel 10 nM, cisplatin 1 μM, alone or KN510 + anticancer drug
K562 cells = experiment: SRB assay cancer cell growth rate, K562; settings: relative to control (100%), 48 hours, KN510 200 μM, irinotecan 2.5 μM, 5-FU 5 μM, gemcitabine 2.5 μM, paclitaxel 10 nM, cisplatin 1 μM, alone or KN510 + anticancer drug
UACC62 cells = experiment: SRB assay cancer cell growth rate, UACC62; settings: relative to control (100%), 48 hours, KN510 200 μM, irinotecan 2.5 μM, 5-FU 5 μM, gemcitabine 2.5 μM, paclitaxel 10 nM, cisplatin 1 μM, alone or KN510 + anticancer drug
[11] = system: prostate cancer cells, PC-3 cells and DU-145 cells; experiment: Synergistic effect of omeprazole and anticancer drug, prostate cancer cells; settings: anticancer drug combined with omeprazole (KN510) versus each treatment alone
[12] = system: liver cancer cell lines SK-HEP-1 cells and Huh-7 cells; experiment: Synergistic effect of omeprazole and anticancer drug, liver cancer cell lines; settings: anticancer drug combined with omeprazole (KN510) versus each treatment alone

Structure (SMILES) | synergistic effect of omeprazole and an anticancer drug in combination, renal cell carcinoma [1] | PC-3 growth rate average (%) (PC-3 cells) | synergistic effect of omeprazole and an anticancer drug in combination, stomach cancer [2] | synergistic effect of omeprazole and an anticancer drug in combination, ovarian cancer [3] | HCT-116 growth rate average (%) (HCT-116 cells) | synergistic effect of omeprazole and an anticancer drug in combination, lung cancer [4] | CAKI-1 growth rate average (%) (CAKI-1 cells) | ACHN growth rate average (%) (ACHN cells) | synergistic effect of omeprazole and an anticancer drug in combination, leukemia [5] | synergistic effect of omeprazole and an anticancer drug in combination, glioblastoma (GBM) [6] | SR growth rate average (%) (SR cells) | OVCAR-8 growth rate average (%) (OVCAR-8 cells) | UACC257 growth rate average (%) (UACC257 cells) | synergistic effect of omeprazole and an anticancer drug in combination, colon cancer [7] | synergistic effect of omeprazole and an anticancer drug in combination, melanoma [8] | synergistic effect of omeprazole and an anticancer drug in combination, pancreatic cancer (PDAC) [9] | synergistic effect of omeprazole and an anticancer drug in combination, breast cancer [10] | A549 growth rate average (%) (A549 cells) | K562 growth rate average (%) (K562 cells) | UACC62 growth rate average (%) (UACC62 cells) | also measured
Nc1ccn([C@@H]2O[C@H](CO)[C@@H](O)C2(F)F)c(=O)n1 [Gemcitabine] | Negative effect | 32.17 | Negative effect | Negative effect | 16.32 | Negative effect | 2.30 | −2.82 | Negative effect | Negative effect | 53.15 | −14.25 | 30.97 | Negative effect | Negative effect | Negative effect | Negative effect | −16.60 | 53.51 | 53.65 | synergistic effect of omeprazole and an anticancer drug in combination, prostate cancer [11]: Negative effect; synergistic effect of omeprazole and an anticancer drug in combination, liver cancer [12]: Negative effect
CCc1c2c(nc3ccc(OC(=O)N4CCC(N5CCCCC5)CC4)cc13)-c1cc3c(c(=O)n1C2)COC(=O)[C@]3(O)CC [Irinotecan] | Positive effect | 33.84 | Negative effect | Negative effect | 41.85 | Negative effect | 44.74 | 42.20 | Positive effect | Positive effect | 6.26 | 4.70 | 21.87 | Positive effect | Positive effect | Positive effect | Positive effect | 16.54 | 46.54 | −35.63 | synergistic effect of omeprazole and an anticancer drug in combination, renal cell carcinoma ([1]; listed as irinotecan): significantly inhibited; synergistic effect of omeprazole and an anticancer drug in combination, leukemia ([5]; listed as irinotecan): significantly inhibited; synergistic effect of omeprazole and an anticancer drug in combination, glioblastoma (GBM) ([6]; listed as irinotecan): significantly inhibited; synergistic effect of omeprazole and an anticancer drug in combination, colon cancer ([7]; listed as irinotecan): significantly inhibited; synergistic effect of omeprazole and an anticancer drug in combination, melanoma ([8]; listed as irinotecan): significantly inhibited; synergistic effect of omeprazole and an anticancer drug in combination, pancreatic cancer (PDAC) ([9]; listed as irinotecan): significantly inhibited; synergistic effect of omeprazole and an anticancer drug in combination, breast cancer ([10]; listed as irinotecan): significantly inhibited; synergistic effect of omeprazole and an anticancer drug in combination, prostate cancer [11]: Negative effect; synergistic effect of omeprazole and an anticancer drug in combination, liver cancer [12]: Positive effect; synergistic effect of omeprazole and an anticancer drug in combination, liver cancer ([12]; listed as irinotecan): significantly inhibited
CC(=O)O[C@H]1C(=O)[C@@]2(C)[C@H]([C@H](OC(=O)c3ccccc3)[C@]3(O)C[C@H](OC(=O)[C@H](O)[C@@H](NC(=O)c4ccccc4)c4ccccc4)C(C)=C1C3(C)C)[C@]1(OC(C)=O)CO[C@@H]1C[C@@H]2O [Paclitaxel] | Negative effect | 32.49 | Positive effect | Negative effect | 17.70 | Positive effect | 17.70 | 0.91 | Positive effect | Positive effect | 94.83 | 12.64 | 35.43 | Positive effect | Positive effect | Positive effect | Negative effect | 22.67 | 59.27 | 48.36 | synergistic effect of omeprazole and an anticancer drug in combination, stomach cancer ([2]; listed as paclitaxel): significantly inhibited; synergistic effect of omeprazole and an anticancer drug in combination, lung cancer ([4]; listed as paclitaxel): significantly inhibited; synergistic effect of omeprazole and an anticancer drug in combination, leukemia ([5]; listed as paclitaxel): significantly inhibited; synergistic effect of omeprazole and an anticancer drug in combination, glioblastoma (GBM) ([6]; listed as paclitaxel): significantly inhibited; synergistic effect of omeprazole and an anticancer drug in combination, colon cancer ([7]; listed as paclitaxel): significantly inhibited; synergistic effect of omeprazole and an anticancer drug in combination, melanoma ([8]; listed as paclitaxel): significantly inhibited; synergistic effect of omeprazole and an anticancer drug in combination, pancreatic cancer (PDAC) ([9]; listed as paclitaxel): significantly inhibited; synergistic effect of omeprazole and an anticancer drug in combination, prostate cancer [11]: Negative effect; synergistic effect of omeprazole and an anticancer drug in combination, liver cancer [12]: Negative effect

Source: patent US20240390352A1, “PHARMACEUTICAL COMPOSITION FOR PREVENTING OR TREATING CANCER COMPRISING CARNITINE ACYLCARNITINE CARRIER INHIBITOR AND ANTITUMOR AGENT” (NEW CANCER CURE - BIO CO.,LTD., priority 2021, published 2024)
